Assay results taken from US11339171B2, “MDM2 inhibitors” (Gan & Lee Pharmaceuticals, priority 2017, dated 2022).
Where “and” joins values, the source holds several entries; their conditions need not be identical. Equal entries are not always repeated. Where two headings read alike, the source gives them in different places.

How the values were obtained:
MDM2 = target: T1, MDM2 (Homo sapiens, UniProt Q00987); assay: Inhibition test of MDM2-P53 (GST-MDM2, Biotin-P53, Anti-GST-Tb, SA-XL665); type: binding
T1 construct: made in house
T1 sequence (Q00987 whole entry): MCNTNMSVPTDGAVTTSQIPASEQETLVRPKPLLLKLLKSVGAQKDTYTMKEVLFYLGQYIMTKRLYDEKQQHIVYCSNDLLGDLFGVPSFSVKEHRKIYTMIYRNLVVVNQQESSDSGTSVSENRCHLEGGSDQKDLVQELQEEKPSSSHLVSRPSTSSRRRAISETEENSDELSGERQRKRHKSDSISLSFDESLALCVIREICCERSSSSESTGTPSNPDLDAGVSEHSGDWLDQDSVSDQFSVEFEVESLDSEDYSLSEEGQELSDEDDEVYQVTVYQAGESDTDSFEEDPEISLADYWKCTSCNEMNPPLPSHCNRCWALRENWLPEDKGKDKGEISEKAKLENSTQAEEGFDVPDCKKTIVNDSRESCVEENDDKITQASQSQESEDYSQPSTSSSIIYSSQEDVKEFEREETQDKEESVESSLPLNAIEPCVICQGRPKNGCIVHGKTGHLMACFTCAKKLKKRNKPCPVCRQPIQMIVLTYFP
Procedure, shortened: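 HTRF-type assay using 4 nM GST-MDM2 (final), Biotin-P53, SA-XL665 and anti-GST-Tb in PBS with 0.1% BSA, 5 mM DTT and 1 mM AEBSF. Compounds in 5-fold serial dilutions over twelve points; incubation 90 min at 25° C with shaking before plate-reader read-out.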

[1] = Pharmacokinetics in ICR mice after intravenous and intragastric administration; type: in vivo; settings: for MRT last: read-out: MRT(0-t); for MRT inf: read-out: MRT(0-∞); for Vd: read-out: Vz; for bioavailability: PO 5 mg/kg vs IV 2 mg/kg, from mean values, read-out: F* (bioavailability)
Procedure, shortened: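 Male ICR mice (6-9 weeks, 20-30 g, n=3 per route) were fasted overnight and dosed at 2 mg/kg i.v. or 5 mg/kg intragastrically in 5% DMSO/40% PEG400/55% (10% HP-β-CD in saline). Plasma levels were measured by LC-MS/MS after protein precipitation (LLOQ 1 ng/mL), and non-compartmental PK parameters were calculated.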

[2] = test system: human osteosarcoma cell line SJSA-1; assay: Inhibition of proliferation of human osteosarcoma cell line SJSA-1 (DAPI staining, In Cell Analyzer); settings: Homo sapiens, SJSA-1, 72 h, read-out: IC50 (nM), inhibitory activity on proliferation of human osteosarcoma cell line SJSA-1, SJSA-1, incubated 72 h
Procedure: 2.2 Experiment Preparation:
2.2.1 Preparation of a culture medium for human osteosarcoma cell line SJSA-1: RPMI1640+10% FBS+1% penicillin/streptomycin
2.2.2 Preparation of a test compound solution:
a. the test compound solution with a certain concentration was taken, and diluted with the culture medium to obtain a compound solution with a final concentration of 20 μM;
b. 200 μL of a culture medium containing 0.2% DMSO (dimethyl sulfoxide) was added into H2-H10 of a 96-well plate; 300 μl of the above solution was added into H1; and
c. 100 μL was taken out from well H1, added into H2, and mixed well; then 100 μl of the resultant solution was taken and added into H3, and dilution was carried out in sequence until H9 to obtain the 3-fold serial dilution of the test compound.
2.3 Experimental Process:
2.3.1 SJSA-1 cells were inoculated into a 96-well cell plate with black transparent bottom at 4000 cells/100 μl/well, and cultured overnight at 37° C.;
2.3.3 Fixation: the cell plate was taken out, the culture medium was removed, and 50 μL of 4% paraformaldehyde solution was added to each well to fix for 10 min;
2.3.4 50 μl of 0.1 M glycine was added to neutralize for 10 min;
2.3.5 Washing was performed with 1×PBS (phosphate buffer solution pH7.2) twice;
2.3.6 Permeabilization: 50 μL of 0.2% TritonX-100 (Triton) was added per well, and permeabilization was carried out at room temperature for 10 min;
2.3.7 Washing was performed with 1×PBS (phosphate buffer solution pH7.2) twice;
2.3.9 Washing was performed with 1×PBS (phosphate buffer solution pH7.2) for three times; and
2.3.10 Scanning and analysis were performed by In cell analyzer.
The inhibition rate of each compound at each concentration point was calculated according to the following formula, and curve fitting was performed by GraphPad Prism 6.0 software to obtain the IC50 value.

[3] = ICR mice, IV 2 mg/kg, individual animal, 2 mg/kg
[4] = ICR mice, PO 5 mg/kg, individual animal, 5 mg/kg
[5] = male, ICR, mouse, plasma, iv, 2 mg/kg, ICR mice, IV 2 mg/kg, individual animal
[6] = male, ICR, mouse, plasma, iv, 2 mg/kg, ICR mice, IV 2 mg/kg, individual animal, read-out: AUC(0-t)
[7] = male, ICR, mouse, plasma, iv, 2 mg/kg, ICR mice, IV 2 mg/kg, individual animal, read-out: Cmax
[8] = male, ICR, mouse, plasma, iv, 2 mg/kg, ICR mice, IV 2 mg/kg, individual animal, read-out: t1/2 (converted)
[9] = male, ICR, mouse, plasma, iv, 2 mg/kg, ICR mice, IV 2 mg/kg, mean of 3 animals
[10] = male, ICR, mouse, plasma, iv, 2 mg/kg, ICR mice, IV 2 mg/kg, mean of 3 animals, read-out: AUC(0-t)
[11] = male, ICR, mouse, plasma, iv, 2 mg/kg, ICR mice, IV 2 mg/kg, mean of 3 animals, read-out: Cmax
[12] = male, ICR, mouse, plasma, iv, 2 mg/kg, ICR mice, IV 2 mg/kg, mean of 3 animals, read-out: Tmax
[13] = male, ICR, mouse, plasma, iv, 2 mg/kg, ICR mice, IV 2 mg/kg, mean of 3 animals, read-out: t1/2 (converted)
[14] = male, ICR, mouse, plasma, po, 5 mg/kg, ICR mice, PO 5 mg/kg, individual animal
[15] = male, ICR, mouse, plasma, po, 5 mg/kg, ICR mice, PO 5 mg/kg, individual animal, read-out: AUC(0-t)
[16] = male, ICR, mouse, plasma, po, 5 mg/kg, ICR mice, PO 5 mg/kg, individual animal, read-out: Tmax
[17] = male, ICR, mouse, plasma, po, 5 mg/kg, ICR mice, PO 5 mg/kg, individual animal, read-out: t1/2 (converted)
[18] = male, ICR, mouse, plasma, po, 5 mg/kg, ICR mice, PO 5 mg/kg, mean of 3 animals
[19] = male, ICR, mouse, plasma, po, 5 mg/kg, ICR mice, PO 5 mg/kg, mean of 3 animals, read-out: AUC(0-t)
[20] = male, ICR, mouse, plasma, po, 5 mg/kg, ICR mice, PO 5 mg/kg, mean of 3 animals, read-out: Cmax
[21] = male, ICR, mouse, plasma, po, 5 mg/kg, ICR mice, PO 5 mg/kg, mean of 3 animals, read-out: Tmax
[22] = male, ICR, mouse, plasma, po, 5 mg/kg, ICR mice, PO 5 mg/kg, mean of 3 animals, read-out: t1/2 (converted)
[23] = male, ICR, mouse, plasma, po, 5 mg/kg, oral intragastric administration 5 mg/kg, read-out: AUC0-t
[24] = male, ICR, mouse, plasma, po, 5 mg/kg, oral intragastric administration 5 mg/kg, read-out: half-life (converted)

In the case of `COc1cc(OC(C)C)ncc1-c1nc2c(n1C(C)C)[C@@]1(C(=O)Nc3cc(Cl)ccc31)N(c1cc(Cl)ccc1C)C2=O` [Example S-69, (S)-6-chloro-5′-(5-chloro-2-methylphenyl)-2′-(6-isopropoxy-4-methoxypyridin-3-yl)-3′-isopropyl-3′H-spiro[dihydroindole-3,4′-pyrrolo[3,4-d]imidazole]-2,6′(5′H)-dione], the IC50 (MDM2) is reported as 1.78 nM, the “AUC(0-t)” value [1, 3] is reported as 50006.21 ng·h/mL and 52203.96 ng·h/mL and the “AUC(0-∞)” value [1, 3] is reported as 50659.35 ng·h/mL and 52314.11 ng·h/mL. For the same compound, the CL [1, 3] was 0.66 mL/min/kg, the Cmax [1, 3] was 5141.60 ng/mL and 6038.43 ng/mL and the “MRT(0-t)” value [1, 3] was 4.62 h and 4.30 h. The “MRT(0-∞)” value [1, 3] was 4.95 h and 4.35 h, the Tmax [1, 3] was 0.50 h and 0.08 h and the Vz [1, 3] was 0.23 L/kg. The t1/2 [1, 3] was 4.02 h and 2.83 h, the “AUC(0-t)” value [1, 4] was 106563.84 ng·h/mL and 85266.27 ng·h/mL and the “AUC(0-∞)” value [1, 4] was 106654.00 ng·h/mL and 85298.58 ng·h/mL. For the same compound, the Cmax [1, 4] was 10867.97 ng/mL and 11828.43 ng/mL, the “MRT(0-t)” value [1, 4] was 5.03 h and 4.46 h and the “MRT(0-∞)” value [1, 4] was 5.04 h and 4.47 h. For the same compound, the t1/2 [1, 4] was 2.28 h and 2.03 h, the AUC(0-inf) [1, 5] was 53200 ng·h/mL and the clearance [1, 5] was 0.63 mL/min/kg. The AUC(0-t) [1, 6] was 53100 ng·h/mL, the Cmax [1, 7] was 5980 ng/mL and the MRT last [1, 5] was 4.38 h. It also gave an MRT inf [1, 5] of 4.44 h, a Vd [1, 5] of 0.16 L/kg and a half-life [1, 8] of 2.88 h. For the same compound, the AUC(0-inf) [1, 9] was 52100 ng·h/mL, the clearance [1, 9] was 0.64 mL/min/kg and the AUC(0-t) [1, 10] was 51800 ng·h/mL. For the same compound, the Cmax [1, 11] was 5720 ng/mL, the MRT last [1, 9] was 4.43 h and the MRT inf [1, 9] was 4.58 h. The Tmax [1, 12] was 0.222 h, the Vd [1, 9] was 0.18 L/kg and the half-life [1, 13] was 3.24 h. The AUC(0-inf) [1, 14] was 69300 ng·h/mL, the AUC(0-t) [1, 15] was 69200 ng·h/mL and the Cmax ([1]; male, ICR, mouse, plasma, po, 5 mg/kg, ICR mice, PO 5 mg/kg, individual animal, read-out: Cmax) was 7630 ng/mL. For the same compound, the MRT last [1, 14] was 4.92 h, the MRT inf [1, 14] was 4.94 h and the Tmax [1, 16] was 2 h. It also gave a half-life [1, 17] of 2.24 h, an AUC(0-inf) [1, 18] of 87100 ng·h/mL and an AUC(0-t) [1, 19] of 87000 ng·h/mL. For the same compound, the Cmax [1, 20] was 10100 ng/mL, the MRT last [1, 18] was 4.8 h and the MRT inf [1, 18] was 4.82 h. The Tmax [1, 21] was 2 h, the half-life [1, 22] was 2.18 h and the AUC(0-t) [1, 23] was 87000 ng·h/mL. The half-life [1, 24] was 2.18 h, the bioavailability ([1]; male, mouse, plasma, ICR mice) was 67.2% and the IC50 [2] was 2.29 nM.
In the case of `COc1cc(C(C)C)ccc1-c1nc2c(n1C(C)C)[C@@]1(C(=O)Nc3cc(Cl)ccc31)N(c1cc(Cl)ccc1C)C2=O` [Example S-32, (S)-6-chloro-5′-(5-chloro-2-methylphenyl)-3′-isopropyl-2′-(4-isopropyl-2-methoxyphenyl)-3′H-spiro[dihydroindole-3,4′-pyrrolo[3,4-d]imidazole]-2,6′(5′H)-dione], the IC50 (MDM2) is reported as 3.89 nM, the “AUC(0-t)” value [1, 3] is reported as 3859.04 ng·h/mL and 4699.29 ng·h/mL and the “AUC(0-∞)” value [1, 3] is reported as 4004.98 ng·h/mL and 4854.66 ng·h/mL. For the same compound, the CL [1, 3] was 8.323 mL/min/kg and 6.8663 mL/min/kg, the Cmax [1, 3] was 1902.13 ng/mL and 2766.01 ng/mL and the “MRT(0-t)” value [1, 3] was 1.29 h and 1.32 h. For the same compound, the “MRT(0-∞)” value [1, 3] was 1.53 h, the Tmax [1, 3] was 0.50 h and 0.08 h and 0.25 h and the Vz [1, 3] was 0.90833 L/kg and 0.7302 L/kg. For the same compound, the t1/2 [1, 3] was 1.26 h and 1.23 h, the “AUC(0-t)” value [1, 4] was 10704.89 ng·h/mL and 8458.06 ng·h/mL and the “AUC(0-∞)” value [1, 4] was 11027.74 ng·h/mL and 9168.53 ng·h/mL. For the same compound, the Cmax [1, 4] was 1578.70 ng/mL and 3356.31 ng/mL and 2518.33 ng/mL, the “MRT(0-t)” value [1, 4] was 2.24 h and 2.48 h and the “MRT(0-∞)” value [1, 4] was 2.48 h and 3.14 h. For the same compound, the t1/2 [1, 4] was 1.51 h and 2.07 h, the AUC(0-inf) [1, 5] was 7630 ng·h/mL and the clearance [1, 5] was 4.37 mL/min/kg. It also gave an AUC(0-t) [1, 6] of 7200 ng·h/mL, a Cmax [1, 7] of 2450 ng/mL and an MRT last [1, 5] of 1.61 h. For the same compound, the MRT inf [1, 5] was 1.97 h, the Vd [1, 5] was 0.543 L/kg and the half-life [1, 8] was 1.44 h. For the same compound, the AUC(0-inf) [1, 9] was 5500 ng·h/mL, the clearance [1, 9] was 6.52 mL/min/kg and the AUC(0-t) [1, 10] was 5250 ng·h/mL. It also gave a Cmax [1, 11] of 2370 ng/mL, an MRT last [1, 9] of 1.41 h and an MRT inf [1, 9] of 1.68 h. The Tmax [1, 12] was 0.278 h, the Vd [1, 9] was 0.727 L/kg and the half-life [1, 13] was 1.31 h. It also gave an AUC(0-inf) [1, 14] of 7100 ng·h/mL, an AUC(0-t) [1, 15] of 6020 ng·h/mL and an MRT last [1, 14] of 2.79 h. The MRT inf [1, 14] was 4.22 h, the Tmax [1, 16] was 1 h and the half-life [1, 17] was 2.89 h. For the same compound, the AUC(0-inf) [1, 18] was 9100 ng·h/mL, the AUC(0-t) [1, 19] was 8390 ng·h/mL and the Cmax [1, 20] was 2480 ng/mL. The MRT last [1, 18] was 2.5 h, the MRT inf [1, 18] was 3.28 h and the Tmax [1, 21] was 1 h. It also gave a half-life [1, 22] of 2.16 h, an AUC(0-t) [1, 23] of 8390 ng·h/mL and a half-life [1, 24] of 2.16 h. The bioavailability ([1]; male, mouse, plasma, ICR mice) was 63.9% and the IC50 [2] was 10.1 nM.
